US20060069132A1, “Azolecarboxamide herbicides” (priority 2004, published 2006)

Columns and labels:
[1] = test system: soybean; assay: Test C pre-/postemergence herbicide test; assay type: in vivo, Glycine max
In short: (§1)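 Pre/post spray; non-phytotoxic solvent + surfactant. Post-timing 1–4 leaves, 2–18 cm. Read-out: visual % control vs untreated, day 12–14, greenhouse.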

[2] = test system: bermudagrass; assay: Test C pre-/postemergence herbicide test; assay type: in vivo, Cynodon dactylon
In short: as §1

[3] = test system: large crabgrass; assay: Test C pre-/postemergence herbicide test; assay type: in vivo, Digitaria sanguinalis
In short: as §1

[4] = test system: pigweed; assay: Test C pre-/postemergence herbicide test; assay type: in vivo, Amaranthus retroflexus
In short: as §1

[5] = test system: giant foxtail; assay: Test A pre-/postemergence herbicide test; assay type: in vivo, Setaria faberi; conditions: for Plant response rating, Foxtail, Giant: Postemergence; for Foxtail, Giant plant response rating: Preemergence
In short: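 Greenhouse injury scoring (0–100, complete control = 100) at approximately ten days follows simultaneous pre- and postemergence application. Soil received a directed spray after seeding; seedlings of 2–10 cm at the one- to two-leaf stage were sprayed to runoff.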

[6] = test system: yellow nutsedge; assay: Test C pre-/postemergence herbicide test; assay type: in vivo, Cyperus esculentus
In short: as §1

[7] = test system: morningglory; assay: Test C pre-/postemergence herbicide test; assay type: in vivo, Ipomoea coccinea; set-up: key to Plant response rating, Morningglory: 0 = no effect, 100 = complete control
In short: as §1

[8] = test system: giant foxtail; assay: Test C pre-/postemergence herbicide test; assay type: in vivo, Setaria faberi
In short: as §1

[9] = test system: kochia; assay: Test C pre-/postemergence herbicide test; assay type: in vivo, Kochia scoparia
In short: as §1

[10] = test system: common ragweed; assay: Test C pre-/postemergence herbicide test; assay type: in vivo, Ambrosia elatior; set-up: key to Plant response rating, Ragweed: 0 = no effect, 100 = complete control
In short: as §1

[11] = 31 g ai/ha, preemergence, scale 0 to 100
[12] = 125 g ai/ha, scale 0 (no effect) to 100 (complete control), visual, 12 to 14 days, preemergence
[13] = postemergence, 125 g ai/ha, scale 0 to 100
[14] = postemergence, 62 g ai/ha, scale 0 to 100
[15] = Postemergence, 125 g ai/ha, scale 0 to 100, 0 no effect, 100 complete control
[16] = 500 g ai/ha, 0 to 100 scale, 0 no effect, 100 complete control
[17] = 2000 g ai/ha, 0 to 100 scale, 0 no effect, 100 complete control
[18] = 500 g ai/ha, visual rating, 0 to 100 scale (0 no effect, 100 complete control)
[19] = 250 g ai/ha, scale 0 to 100 (0 no effect, 100 complete control), visual, 12 to 14 days, preemergence
[20] = Postemergence, 250 g ai/ha, scale 0 to 100, 0 no effect, 100 complete control

CCNC(=O)c1cccc(NC(=O)c2cc(C(C)(C)C)nn2CCF)c1 [Compound 35]
Plant response rating, Soybean [1, 11]: 0
Plant response rating (0 = no effect, 100 = complete control), Soybean ([1]; 62 g ai/ha, preemergence): 0
Plant response rating, Soybean [1, 12]: 0
Plant response rating, Soybean [1, 13]: 90
Plant response rating, Soybean [1, 14]: 90
Plant response rating, Bermudagrass ([2]; 16 g ai/ha, scale 0 to 100, 0 no effect, 100 complete control, last section of Table C (species set of preemergence test)): 0
Plant response rating, Bermudagrass [2, 11]: 30
Plant response rating (0 = no effect, 100 = complete control), Bermudagrass ([2]; 62 g ai/ha, preemergence): 90
Plant response rating, Bermudagrass [2, 12]: 100
Plant response rating, Bermudagrass [2, 15]: 20
Plant response rating, Bermudagrass ([2]; postemergence, 16 g ai/ha, scale 0 to 100): 0
Plant response rating, Bermudagrass [2, 14]: 0
Plant response rating, Crabgrass, Large [3, 11]: 0
Plant response rating (0 = no effect, 100 = complete control), Crabgrass, Large ([3]; 62 g ai/ha, preemergence): 10
Plant response rating, Crabgrass, Large [3, 12]: 50
Plant response rating, Crabgrass, Large [3, 15]: 40
Plant response rating, Crabgrass, Large [3, 14]: 40
Plant response rating, Pigweed [4, 11]: 0
Plant response rating (0 = no effect, 100 = complete control), Pigweed ([4]; 62 g ai/ha, preemergence): 90
Plant response rating, Pigweed [4, 12]: 100
Plant response rating, Pigweed [4, 13]: 100
Plant response rating, Pigweed [4, 14]: 100
Plant response rating, Foxtail, Giant [5, 16]: 50
Plant response rating, Foxtail, Giant [5, 17]: 70
Foxtail, Giant plant response rating [5, 18]: 80
Foxtail, Giant plant response rating [5, 17]: 100
Plant response rating, Nutsedge, Yellow ([6]; 16 g ai/ha, scale 0 to 100, last section of Table C, preemergence): 0
Plant response rating, Nutsedge, Yellow [6, 11]: 0
Plant response rating (0 = no effect, 100 = complete control), Nutsedge, Yellow ([6]; 62 g ai/ha, preemergence): 0
Plant response rating, Nutsedge, Yellow [6, 12]: 0
Plant response rating, Nutsedge, Yellow [6, 13]: 0
Plant response rating, Nutsedge, Yellow [6, 14]: 0
Plant response rating, Morningglory [7, 11]: 0
Plant response rating (0 = no effect, 100 = complete control), Morningglory ([7]; 62 g ai/ha, preemergence): 100
Plant response rating, Morningglory [7, 13]: 40
Plant response rating, Morningglory [7, 14]: 20
Plant response rating, Foxtail, Giant [8, 11]: 0
Plant response rating (0 = no effect, 100 = complete control), Foxtail, Giant ([8]; 62 g ai/ha, preemergence): 20
Plant response rating, Foxtail, Giant [8, 12]: 30
Plant response rating, Foxtail, Giant [8, 15]: 40
Plant response rating, Foxtail, Giant [8, 14]: 40
Plant response rating, Kochia [9, 11]: 0
Plant response rating (0 = no effect, 100 = complete control), Kochia ([9]; 62 g ai/ha, preemergence): 10
Plant response rating, Kochia [9, 12]: 10
Plant response rating, Kochia [9, 15]: 90
Plant response rating, Kochia [9, 14]: 90
Plant response rating, Ragweed [10, 11]: 0
Plant response rating (0 = no effect, 100 = complete control), Ragweed ([10]; 62 g ai/ha, preemergence): 10
Plant response rating, Ragweed [10, 12]: 80
Plant response rating, Ragweed [10, 13]: 50
Plant response rating, Ragweed [10, 14]: 50

CCn1nc(C(C)(C)C)cc1C(=O)Nc1cccc(C(=O)NC2CC2)c1 [Compound 44]
Plant response rating (0 = no effect, 100 = complete control), Soybean ([1]; 62 g ai/ha, preemergence): 0
Plant response rating, Soybean [1, 12]: 10
Plant response rating, Soybean [1, 19]: 10
Plant response rating, Soybean [1, 20]: 100
Plant response rating, Soybean [1, 14]: 100
Plant response rating (0 = no effect, 100 = complete control), Bermudagrass ([2]; 62 g ai/ha, preemergence): 0
Plant response rating, Bermudagrass [2, 19]: 20
Plant response rating, Bermudagrass [2, 15]: 90
Plant response rating (0 = no effect, 100 = complete control), Crabgrass, Large ([3]; 62 g ai/ha, preemergence): 0
Plant response rating, Crabgrass, Large [3, 12]: 20
Plant response rating, Crabgrass, Large [3, 19]: 20
Plant response rating, Crabgrass, Large [3, 15]: 90
Plant response rating, Crabgrass, Large [3, 20]: 90
Plant response rating, Crabgrass, Large [3, 14]: 60
Plant response rating (0 = no effect, 100 = complete control), Pigweed ([4]; 62 g ai/ha, preemergence): 10
Plant response rating, Pigweed [4, 12]: 70
Plant response rating, Pigweed [4, 19]: 90
Plant response rating, Pigweed [4, 20]: 100
Plant response rating, Pigweed [4, 14]: 100
Plant response rating, Foxtail, Giant [5, 16]: 50
Plant response rating, Foxtail, Giant [5, 17]: 90
Foxtail, Giant plant response rating [5, 18]: 65
Foxtail, Giant plant response rating [5, 17]: 100
Plant response rating (0 = no effect, 100 = complete control), Nutsedge, Yellow ([6]; 62 g ai/ha, preemergence): 0
Plant response rating, Nutsedge, Yellow [6, 12]: 0
Plant response rating, Nutsedge, Yellow [6, 19]: 0
Plant response rating, Nutsedge, Yellow [6, 20]: 20
Plant response rating, Nutsedge, Yellow [6, 14]: 20
Plant response rating (0 = no effect, 100 = complete control), Morningglory ([7]; 62 g ai/ha, preemergence): 0
Plant response rating, Morningglory [7, 12]: 0
Plant response rating, Morningglory [7, 19]: 0
Plant response rating, Morningglory [7, 20]: 80
Plant response rating, Morningglory [7, 14]: 50
Plant response rating (0 = no effect, 100 = complete control), Foxtail, Giant ([8]; 62 g ai/ha, preemergence): 10
Plant response rating, Foxtail, Giant [8, 12]: 10
Plant response rating, Foxtail, Giant [8, 19]: 10
Plant response rating, Foxtail, Giant [8, 15]: 30
Plant response rating, Foxtail, Giant [8, 20]: 50
Plant response rating, Foxtail, Giant [8, 14]: 30
Plant response rating (0 = no effect, 100 = complete control), Kochia ([9]; 62 g ai/ha, preemergence): 0
Plant response rating, Kochia [9, 12]: 10
Plant response rating, Kochia [9, 19]: 10
Plant response rating, Kochia [9, 15]: 90
Plant response rating, Kochia [9, 20]: 90
Plant response rating, Kochia [9, 14]: 90
Plant response rating (0 = no effect, 100 = complete control), Ragweed ([10]; 62 g ai/ha, preemergence): 0
Plant response rating, Ragweed [10, 12]: 30
Plant response rating, Ragweed [10, 19]: 70
Plant response rating, Ragweed [10, 20]: 90
Plant response rating, Ragweed [10, 14]: 50
